Measured values reported in patent US12552783B2, “Modulators of proteolysis and associated methods of use” (Arvinas Operations, Inc., priority 2018, dated 2026).

Target: KRas (Homo sapiens, UniProt P01116, G12C)
Assay: KRas degradation in NCI-H2030 cells by Western blot, normalized to GAPDH (data of Table 14)
Format: cell-based
Design: host or cells: NCI-H2030
Settings: for Dmax: NCI-H2030
Protocol: Cell Lines, Antibodies, and Reagents. NCI-H2030 (CRL-5914) and SW1573 (CRL-2170) cells were purchased from ATCC. Both cell lines are homozygous for the G12C mutation in KRas. NCI-H2030 cells were cultured in RPMI-1640 medium containing 1% penicillin-streptomycin and 10% fetal bovine serum (FBS). SW1573 cells were cultured in DMEM containing 1% penicillin-streptomycin and 10% FBS. The KRas detection antibody (Cat. No. LS-C175665) was purchased from LifeSpan Biosciences and was used at a dilution of 1:2000. GAPDH was detected using an antibody purchased from Cell Signaling Technology (Cat. No. 5174) and was diluted 1:3000. Secondary anti-mouse and anti-rabbit detection antibodies were purchased from Cell Signaling Technology (Cat. Nos. 7076 and 7074, respectively).
Compound Treatment and Western Blotting of the Data of Table 14. Either NCI-H2030 or SW1573 cells were plated in 12-well plates and allowed to adhere overnight at 37° C. in an incubator containing 5% CO2. The following day, the medium was replaced with the appropriate medium lacking FBS to induce starvation. Cells were returned to the incubator for an additional 24 hours following media exchange. […] Cells were treated with VHL-based compounds for 24 hours and all other compounds for 72 hours. Following treatment, cells were lysed in RIPA buffer (Thermo Fisher Cat. No. 89900) containing phosphatase (Thermo Fisher Cat. No. 1861277) and protease (Thermo Fisher Cat. No. 78429) inhibitor cocktails. Lysates were cleared at 13,000 rpm for 15 minutes and supernatants were assayed for total protein concentration using the Pierce BCA assay system (Thermo Fisher Cat. No. 23225). For each sample, 10 μg total protein was resolved on a 12% Bis-Tris gel and then transferred to a nitrocellulose membrane. After blocking in 3% BSA in TBST (Tris-buffered Saline with 0.1% Tween-20) for 1 hour at room temperature, membranes were probed with the primary antibody (LS Bio Cat. No. LS-C175665) overnight at 4° C. After incubation with the secondary antibody, the following day membranes were visualized using the SuperSignal™ West Femto substrate (Thermo Fisher Cat. No. 34095). The KRas signal in each lane was normalized to GAPDH and percent degradation was either estimated as less than 25% by visual inspection (C in Table 13) or quantitated relative to the DMSO control lane using BIO-RAD Image Lab 5.2.1, and all data was plotted using GraphPad PRISM 6.07.
DC50 is the half-maximal degradation concentration—i.e., the concentration at which 50% degradation is observed. DMax is the maximum degradation efficacy is achieved—i.e., the maximal degradation observed) degradation data.

| SMILES | Percent Degradation at Indicated Concentration (μM) (H2030 cells, 0.3 μM) | Percent Degradation at Indicated Concentration (μM) (H2030 cells, 1 μM) | Percent Degradation at Indicated Concentration (μM) (H2030 cells, 3 μM) | Percent Degradation at Indicated Concentration (μM) (H2030, 0.3 μM) | Percent Degradation at Indicated Concentration (μM) (H2030, 1 μM) | Percent Degradation at Indicated Concentration (μM) (H2030, 3 μM) | Dmax [%] |
| --- | --- | --- | --- | --- | --- | --- | --- |
| C=CC(=O)N1CCN(c2nc(O[C@H](C)CN3CCC(OCCOCCOCCOCCOc4ccc5c(c4)C(=O)N(C4CCC(=O)NC4=O)C5=O)CC3)nc3c2CCN(c2cc(O)cc4ccccc24)C3)CC1 (stereo partly drawn) [compound 419, 5-(2-(2-(2-(2-((1-((R)-2-((4-(4-acryloylpiperazin-1-yl)-7-(3-hydroxynaphthalen-1-yl)-5,6,7,8-tetrahydropyrido[3,4-d]pyrimidin-2-yl)oxy)propyl)piperidin-4-yl)oxy)ethoxy)ethoxy)ethoxy)ethoxy)-2-(2,6-dioxopiperidin-3-yl)isoindoline-1,3-dione] | C (Percent Degradation: C ≤ 35) | C (Percent Degradation: C ≤ 35) | C (Percent Degradation: C ≤ 35) |  |  |  |  |
| C=CC(=O)N1CCN(c2nc(NCCC(=O)N(C)CCOCCOCC(=O)N[C@H](C(=O)N3C[C@H](O)C[C@H]3C(=O)N[C@@H](C)c3ccc(-c4scnc4C)cc3)C(C)(C)C)nc3c(F)c(-c4c(O)cccc4F)c(Cl)cc23)CC1 (atropisomer, axis not shown) [compound 208, (2S,4R)-1-((S)-15-(((R)-4-(4-acryloylpiperazin-1-yl)-6-chloro-8-fluoro-7-(2-fluoro-6-hydroxyphenyl)quinazolin-2-yl)amino)-2-(tert-butyl)-12-methyl-4,13-dioxo-6,9-dioxa-3,12-diazapentadecanoyl)-4-hydroxy-N-((S)-1-(4-(4-methylthiazol-5-yl)phenyl)ethyl)pyrrolidine-2-carboxamide] |  |  |  | C (Percent Degradation: C ≤ 35) | C (Percent Degradation: C ≤ 35) | C (Percent Degradation: C ≤ 35) | ≤ 35 |
| C=CC(=O)N1CCN(c2nc(NCCC(=O)N(C)CCOCCOCCOCCOCCOc3cc(-c4scnc4C)ccc3CNC(=O)[C@@H]3C[C@@H](O)CN3C(=O)[C@H](c3cc(C)no3)C(C)C)nc3c(F)c(-c4c(O)cccc4F)c(Cl)cc23)CC1 (atropisomer, axis not shown) [compound 132, (25,4R)-N-(2-((18-(((S)-4-(4-acryloylpiperazin-1-yl)-6-chloro-8-fluoro-7-(2-fluoro-6-hydroxyphenyl)quinazolin-2-yl)amino)-15-methyl-16-oxo-3,6,9,12-tetraoxa-15-azaoctadecyl)oxy)-4-(4-methylthiazol-5-yl)benzyl)-4-hydroxy-1-((S)-3-methyl-2-(3-methylisoxazol-5-yl)butanoyl)pyrrolidine-2-carboxamide] |  |  |  | C (Percent Degradation: C ≤ 35) | C (Percent Degradation: C ≤ 35) | C (Percent Degradation: C ≤ 35) | ≤ 35 |
| C=CC(=O)N1CCN(c2nc(NCCC(=O)N(C)CCOCCOCCOCCNC(=O)c3ccc(NC(=O)[C@@H]4N[C@@H](CC(C)(C)C)[C@](C#N)(c5ccc(Cl)cc5F)[C@H]4c4cccc(Cl)c4F)c(OC)c3)nc3c(F)c(-c4c(O)cccc4F)c(Cl)cc23)CC1 (atropisomer, axis not shown) [compound 311, (2R,3S,4R,5S)-N-(4-((15-((4-(4-acryloylpiperazin-1-yl)-6-chloro-8-fluoro-7-((S)-2-fluoro-6-hydroxyphenyl)quinazolin-2-yl)amino)-12-methyl-13-oxo-3,6,9-trioxa-12-azapentadecyl)carbamoyl)-2-methoxyphenyl)-3-(3-chloro-2-fluorophenyl)-4-(4-chloro-2-fluorophenyl)-4-cyano-5-neopentylpyrrolidine-2-carboxamide] |  |  |  | C (Percent Degradation: C ≤ 35) | C (Percent Degradation: C ≤ 35) | C (Percent Degradation: C ≤ 35) | ≤ 35 |
